Laboratory results as given in US9550763B2, “Heterocyclic ring and carbocyclic derivative” (Shionogi & Co., Ltd., priority 2012, dated 2017).

Target: human P2X3 receptor (Homo sapiens (Human), UniProt P56373)
Experiment: Evaluation of human P2X3 receptor inhibitory activity (Test Example 1-1, FDSS 3000, 96-well, 50 nM ATP)
Assay type: cell-based
Conditions: human P2X3 receptor in C6BU-1 cells; Test Example 1-1 (compounds I-001 to I-300)
Procedure: Stably expressing cell line (C6BU-1 cell transfected with human P2X3 receptor gene (GenBank accession number Y07683) was used. The cells were seeded in a 96-well microtiter plate at a concentration of 8000 cells/well and cultured in the medium (7.0% fetal bovine serum, 7.0% horse serum, 1% antibiotic and antifungal in DMEM) for one day at 37° C. under 5% carbon dioxide atmosphere. The medium was replaced with 4 μM Fluo-3-AM solution (20 mM HEPES, 137 mM NaCl, 5.27 mM KCl, 0.9 mM MgCl2, 1.26 mM CaCl2, 5.6 mM D-glucose, 2.5 mM probenecid, 1% BSA, and 0.08% Pluronic F-127, pH 7.5) and incubated at 37° C. under 5% dioxide carbon atmosphere for one hour. The plate was washed with washing buffer (20 mM HEPES, 137 mM NaCl, 5.27 mM KCl, 0.9 mM MgCl2, 1.26 mM CaCl2, 5.6 mM D-glucose, 2.5 mM probenecid, pH7.5), and each well was added with 40 μL of this buffer. The plate was placed in High-Throughput Screening System. FDSS 3000 (Hamamatsu Photonics K.K.). Measurement of fluorescence intensity by FDSS 3000 was started, and 40 μL of DMSO solutions containing different concentrations of the test compound as prepared by dilution with dilution buffer (20 mM HEPES, 137 mM NaCl, 5.27 mM KCl, 0.9 mM MgCl2, 1.26 mM CaCl2, 5.68 mM D-glucose, 2.5 mM probenecid, 0.1% Pluronic F-127, pH7.5) were dispensed to each well through the built-in automatic dispenser. Five minutes after, 50 nM ATP solution (50 μL) prepared by dilution with the dilution buffer was dispensed through the built-in automatic dispenser, and the measurement of fluorescence intensity was continued for 4 min. For each well, the specific maximum fluorescence intensity was calculated as the ratio of the maximum fluorescence intensity after addition of the ATP solution to the fluorescence intensity at the starting of the measurement. The 50% inhibitory concentration (IC50) was calculated under the assumption that the specific maximum fluorescence intensity without test compound is 0% inhibition and that the specific maximum fluorescence intensity when the dilution buffer was added in place of ATP solution is 100% inhibition, to evaluate the inhibitory activity of the test compound. FDSS software (Hamamatsu Photonics K.K.) was used for calculation of the specific maximum fluorescence intensity. IC50 was calculated using Microsoft Excel (Microsoft Corporation) and XLfit (idbs Ltd.)
The data of the compounds I-001 to I-300 are the results by the method mentioned in Test Example 1-1, and the data of the compounds I-301 to I-483 are the results by the method mentioned in Test Example 1-2.

Chain of human P2X3 receptor (P56373 whole entry): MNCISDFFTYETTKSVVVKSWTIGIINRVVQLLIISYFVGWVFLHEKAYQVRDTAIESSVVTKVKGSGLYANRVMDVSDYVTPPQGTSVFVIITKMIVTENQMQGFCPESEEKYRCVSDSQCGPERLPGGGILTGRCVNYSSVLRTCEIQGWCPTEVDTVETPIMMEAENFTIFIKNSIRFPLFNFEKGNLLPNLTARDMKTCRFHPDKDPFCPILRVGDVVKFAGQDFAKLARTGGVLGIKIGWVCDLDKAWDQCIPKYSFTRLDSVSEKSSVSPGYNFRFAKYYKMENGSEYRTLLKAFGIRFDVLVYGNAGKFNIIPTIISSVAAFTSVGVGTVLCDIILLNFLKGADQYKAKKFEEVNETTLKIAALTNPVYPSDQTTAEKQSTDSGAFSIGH

Compound | IC50 [nM]
CCOC(=O)c1c[nH]/c(=N\c2ccc(Oc3ccc(F)cn3)cc2)n(Cc2ccc(Cl)cc2)c1=O [Compound I-128] | 35
O=c1c(CO)c[nH]/c(=N\c2ccc(Oc3cccc(F)n3)cc2)n1Cc1ccc(Cl)cc1 [Compound I-037] | 34
CCc1oc2ccc(/N=c3\[nH]cc(C=NN4CCOCC4)c(=O)n3Cc3ccc(Cl)cc3)cc2c1C [Compound I-048] | 22
CCc1oc2ccc(/N=c3\[nH]cc(CO)c(=O)n3Cc3ccc(Cl)cc3)cc2c1C [Compound I-046] | 278
CCCn1c(=O)cc(Nc2ccc(Oc3cnc(C(=O)O)nc3)cn2)n(Cc2ccc(Cl)cc2)c1=O [Compound I-201] | 96
O=C(O)c1c[nH]/c(=N\c2ccc(Oc3ccc(F)cn3)cc2)n(Cc2ccc(Cl)cc2)c1=O [Compound I-141] | 467
CCc1c[nH]/c(=N\c2ccc(Oc3cccc(C#N)n3)cc2)n(Cc2ccc(Cl)cc2)c1=O [Compound I-129] | 61
CCC(=O)Nc1c[nH]/c(=N\c2ccc(Oc3ccc(C(=O)O)nc3)cc2)n(Cc2ccc(Cl)cc2)c1=O [Compound I-092] | 19
CCc1oc2ccc(/N=c3\[nH]cc(C=O)c(=O)n3Cc3ccc(Cl)cc3)cc2c1C [Compound I-045] | 226
O=C(Nc1cnc(Nc2ccc(Oc3ccon3)cc2)n(Cc2ccc(Cl)cc2)c1=O)C1CCOCC1 [Compound I-086] | 2
C[C@@H](Cn1c(=O)cc(Nc2ccc(Oc3cccc(C(N)=O)n3)c(F)c2)n(Cc2ccc(Cl)cc2)c1=O)C(=O)O [Compound I-126] | 3
Cc1cc(C(=O)Nc2c[nH]/c(=N\c3ccc(Oc4ccon4)cc3)n(Cc3ccc(Cl)cc3)c2=O)on1 [Compound I-255] | 147
CC(=O)Nc1cnc(Nc2ccc(Oc3cccc(F)n3)cc2)n(Cc2ccc(Cl)cc2)c1=O [Compound I-070] | 28
O=C(Nc1c[nH]/c(=N\c2ccc(Oc3ccon3)cc2)n(Cc2ccc(Cl)cc2)c1=O)C1CCOC1 (centres unmarked) [Compound I-212] | 11
Cc1cnc(-c2c[nH]/c(=N\c3ccc(Oc4ccon4)cc3)n(Cc3ccc(Cl)cc3)c2=O)o1 [Compound I-294] | 84
CCn1c(=O)cc(Nc2ccc(Oc3cccc(C(=O)O)c3)cn2)n(Cc2ccc(Cl)cc2)c1=O [Compound I-053] | 20
Cn1cc(C(=O)Nc2c[nH]/c(=N\c3ccc(Oc4ccon4)cc3)n(Cc3ccc(Cl)cc3)c2=O)cn1 [Compound I-233] | 236
CCC(=O)Nc1c[nH]/c(=N\c2ccc(Oc3cnc(C(N)=O)cn3)cc2)n(Cc2ccc(Cl)cc2)c1=O [Compound I-097] | 5
Cc1cc(/N=c2\[nH]cc(C(N)=O)c(=O)n2Cc2ccc(Cl)cc2)ccc1Oc1cccc(F)n1 [Compound I-139] | 16
Cc1noc(C)c1C(=O)Nc1c[nH]/c(=N\c2ccc(Oc3ccon3)cc2)n(Cc2ccc(Cl)cc2)c1=O [Compound I-256] | 14
O=C(Nc1c[nH]/c(=N\c2ccc(Oc3ccon3)cc2)n(Cc2ccc(Cl)cc2)c1=O)c1cc[nH]n1 [Compound I-231] | 388
O=C(NC1CCOCC1)c1cn(Cc2cccc(F)c2)c(Nc2ccc(Oc3cccc(F)n3)cc2)nc1=O [Compound I-283] | 226
Cc1cc(Nc2nc(=O)c(C(=O)NC3CCOCC3)cn2Cc2ccc(Cl)cc2)ccc1Oc1cccc(F)n1 [Compound I-157] | 11
CCOC(=O)c1cccc(Oc2ccc(Nc3cc(=O)n(CC)c(=O)n3Cc3ccc(Cl)cc3)cn2)c1 [Compound I-060] | 160
NC(=O)c1cccc(Oc2ccc(/N=c3\[nH]cc(C(N)=O)c(=O)n3Cc3ccc(Cl)cc3)cc2)n1 [Compound I-178] | 14

Compound | IC50 [nM]
CCOC(=O)Cc1c[nH]/c(=N\c2ccc3oc(CC)c(C)c3c2)n(Cc2ccc(Cl)cc2)c1=O [Compound I-072] | 228
CCc1oc2ccc(Nc3ncc(NC(=O)C4CCOCC4)c(=O)n3Cc3ccc(Cl)c(Cl)c3)cc2c1C [Compound I-079] | 58
CCc1oc2ccc(Nc3nc(=O)c(C(=O)NC4CCOCC4)cn3Cc3ccc(Cl)cc3)cc2c1C [Compound I-021] | 20
CN(C)C(=O)CNC(=O)c1cn(Cc2ccc(Cl)cc2)c(Nc2ccc(Oc3ccc(F)cn3)cc2)nc1=O [Compound I-297] | 21
CCN/C(=N\C#N)Nc1c[nH]/c(=N\c2ccc(Oc3ccon3)cc2)n(Cc2ccc(Cl)cc2)c1=O [Compound I-251] | 118
CCn1c(=O)cc(Nc2ccc(Oc3ccc(C(=O)OC)cc3)nc2)n(Cc2ccc(Cl)cc2)c1=O [Compound I-061] | 65
CN(C)C(=O)c1c[nH]/c(=N\c2ccc(Oc3cccc(C(=O)O)n3)cc2)n(Cc2ccc(Cl)cc2)c1=O [Compound I-222] | 47
O=C(NC1CCOCC1)c1cn(Cc2ccccc2)c(Nc2ccc(Oc3cccc(F)n3)cc2)nc1=O [Compound I-280] | 139
CCCn1c(=O)cc(Nc2ccc(Oc3cccc(C(=O)O)n3)c(C)n2)n(Cc2ccc(Cl)cc2)c1=O [Compound I-188] | 6
CCCn1c(=O)cc(Nc2ccc(Oc3cccc(C(=O)O)n3)cn2)n(Cc2ccc(Cl)cc2)c1=O [Compound I-172] | 16
O=C(Nc1c[nH]/c(=N\c2ccc(Oc3ccon3)cc2)n(Cc2ccc(Cl)cc2)c1=O)c1cn[nH]c1 [Compound I-235] | 225
CCOC(=O)c1c[nH]/c(=N\c2ccc(Oc3cccc(F)n3)cc2)n(Cc2ccc(Cl)cc2)c1=O [Compound I-018] | 13
O=c1c(-c2ccncc2)c[nH]/c(=N\c2ccc(Oc3ccon3)cc2)n1Cc1ccc(Cl)cc1 [Compound I-274] | 356
CCn1c(=O)cc(Nc2ccc(Oc3ccc(C(=O)O)cc3)cn2)n(Cc2ccc(Cl)cc2)c1=O [Compound I-054] | 43
C[C@@H](Cn1c(=O)cc(Nc2ccc(Oc3cccc(F)n3)cc2)n(Cc2ccc(Cl)cc2)c1=O)C(=O)O [Compound I-120] | 6
CCc1oc2ccc(/N=c3\[nH]cc(NS(=O)(=O)C4CCOCC4)c(=O)n3Cc3ccc(Cl)cc3)cc2c1C [Compound I-047] | 18
CCn1c(=O)cc(Nc2ccc(Oc3cccc(C#N)n3)c(F)c2)n(Cc2ccc(Cl)cc2)c1=O [Compound I-011] | 2
CCc1oc2ccc(/N=c3\[nH]cc(CC(C)(C)O)c(=O)n3Cc3ccc(Cl)cc3)cc2c1C [Compound I-103] | 144
CCn1c(=O)cc(Nc2ccc(Oc3cccc(C(=O)O)c3)nc2)n(Cc2ccc(Cl)cc2)c1=O [Compound I-062] | 49
O=C(Nc1cnc(Nc2ccc(Oc3ncccc3F)cc2)n(Cc2ccc(Cl)cc2)c1=O)C1CCOCC1 [Compound I-132] | 2
CCc1oc2ccc(Nc3ncc(C(=O)NCCO)c(=O)n3Cc3ccc(Cl)cc3)cc2c1C [Compound I-032] | 34
CCCn1c(=O)cc(Nc2ccc(Oc3cccc(C(=O)O)c3)cc2)n(Cc2ccc(Cl)cc2)c1=O [Compound I-169] | 11
CCC(=O)Nc1c[nH]/c(=N\c2ccc(Oc3ccc(CO)nc3)cc2)n(Cc2ccc(Cl)cc2)c1=O [Compound I-118] | 17
CCC(=O)Nc1c[nH]/c(=N\c2ccc(Oc3ccnc(C(=O)OC)c3)cc2)n(Cc2ccc(Cl)cn2)c1=O [Compound I-287] | 356
CCCn1c(=O)cc(Nc2ccc(Oc3cccc(C#N)n3)cn2)n(Cc2ccc(Cl)cc2)c1=O [Compound I-171] | 21
